Patent publication US12053459B2, “CDK2 inhibitors and methods of using the same” (Cedilla Therapeutics, Inc., priority 2021, dated 2024)

Key:
[1] = biological target: CDK2/Cyclin E1(14-475) (Homo sapiens, UniProt P24941); test: Caliper LabChip EZ Reader mobility shift assay, inhibition of CDK2/Cyclin E1 activity; format: biochemical; details: class symbols A-D
Protocol: Inhibition of CDK2/Cyclin E1 activity in the presence of compounds of the present disclosure was evaluated using a Caliper LabChip® EZ Reader mobility shift assay. In the assay, activated CDK2/Cyclin E1 catalyzes the phosphorylation of a fluorescently tagged peptide 5-FAM-QSPKKG-CONH2 (PerkinElmer, FL Peptide 18) which induces a difference in capillary electrophoresis mobility. The peptide substrate and product were measured, and the conversion ratio was used to determine the inhibition (as % activity and IC50 values) of CDK2/Cyclin E1. Reactions contained 50 mM HEPES pH 7.5, 10 mM MgCl2, 1 mM EDTA, 2 mM DTT, 0.01% Brij35, 0.5 mg/mL BSA, 0.1% DMSO, 2.5 nM CDK2/Cyclin E1(14-475), 100 μM ATP, and 1.5 μM fluorescent peptide substrate.
Dose titrations of inhibitors in 100% DMSO were combined with 3.25 nM CDK2/Cyclin E1(14-475) and 130 μM of ATP in reaction buffer. The mixtures were incubated for 30 minutes before the addition of fluorescent peptide substrate to initiate the kinase reaction. The final conditions were 2.5 nM CDK2/Cyclin E1(14-475), 100 μM ATP, and 1.5 μM fluorescent peptide. The reactions were stopped after 100 minutes with the addition of EDTA (6 mM final EDTA concentration). The stopped reactions were analyzed on a Caliper LabChip® EZ Reader II. The conversion ratios were normalized to yield % activity, plotted against compound concentration, and fit to a four-parameter equation to determine the IC50 for each compound.

[2] = system: Kuramochi cells; test: BrdU cell proliferation assay (colorimetric ELISA), Kuramochi cells; format: cell-based; details: class symbols A-D
Protocol: A BrdU assay was used as a measure of proliferation based on the DNA replication process of proliferating cells. BrdU, a pyrimidine analog, is added to the cell culture and incorporated into the DNA of proliferating cells. The presence of the BrdU analog was then measured through a colorimetric ELISA. After fixation and permeabilization of cells, peroxidase-conjugated antibody recognizing BrdU is added and allowed to incubate, followed by thorough washing to remove unbound antibody. In order to quantify the amount of bound antibody, peroxidase substrate is added and produces a color that can be measured at 450 nm.
On day −1, Kuramochi cells (Sekisui XenoTech JCRB0098) were seeded at 2,000 cells/well in columns 2-12 of a 96 well plate (Corning, CLS3596) in 150 uL media and allowed to adhere overnight at 37 degree with 5% CO2. In order to assess specificity of the compounds, Kuramochi RB^KO cells were also plated and treated, as RB^KO cells were not expected to show a proliferative response to CCNE/CDK specific inhibitors.
On day 0, the source plate was prepared by adding 10 mM compounds and performing 3-fold serial dilutions for a 4-point dose response of each compound. Using a multichannel pipette, 2 uL of the contents of the source plate were stamped into an intermediate plate with 500 uL of RPMI 1640 Media, GlutaMAX Supplement (Life Technologies, 61870127) in each well of a Nunc 96 DeepWell™ plate, non-treated 96 DeepWell plate, 2 mL/well, sterile, natural, 60/cs (Sigma Z717274) and mixed thoroughly. 50 uL from row A of this intermediate plate were added to rows A-H of one plate of previously seeded Kuramochi cells, and each subsequent row of the intermediate plate was added to a full plate of cells.
On day 4, the plates were developed using the BrdU ELISA Cell Proliferation Assay according to manufacturer's instructions (Roche, 11647229001). Briefly, BrdU was diluted 1:100 in Gibco®, Opti-MEM® and 20 μL/well was added, shaken for 10 minutes at 350 rpm, and then returned to the incubator for 1 hour. Following incubation, the medium was discarded, and the cells were fixed by adding 200 μL of Fix/Denature solution. The anti-BrdU peroxidase antibody was diluted 1:1000 in OptiMEM, added at 100 μL/well, and incubated while shaking (350 rpm) for one hour. Three washes with PBS were performed to remove any unbound antibody, followed by the addition of 100 μL of substrate solution to each well. […] was then added to halt the reaction, and plates were read out using an Envision spectrophotometer (Perkin Elmer) set to read 450 nm absorbance. Background absorbance values from empty wells were subtracted from all samples and then normalized to DMSO treated wells.

Structure (SMILES) | IC50 [1] [µM] | IC50 [2] [µM]
CNC(=O)[C@H](CCCc1ccccc1)NC(=O)C1CN(C(=O)Cc2c[nH]c3cc(Cl)ccc23)CC2CN(C(=O)c3nn(C)c4ccccc34)CC21 (some centres unmarked) [I-47] | > 10 | > 10
CNC(=O)[C@H](CCCc1ccccc1)NC(=O)C1CN(C(=O)Cc2c[nH]c3cc(Cl)ccc23)CC2CN(C(=O)c3c4ccccc4nn3C)CC21 (some centres unmarked) [I-48] | > 10 | > 10
CNC(=O)[C@H](CCCc1ccccc1)NC(=O)C1CN(C(=O)Cc2c[nH]c3cc(Cl)ccc23)CC2CN(C(=O)c3ccc(CC(C)C)cc3)CC21 (some centres unmarked) [I-52] | 5 to 10 | > 10
CNC(=O)[C@H](CCCc1ccccc1)NC(=O)C1CN(C(=O)Cc2c[nH]c3cc(Cl)ccc23)CC2CN(C(=O)c3ccc(NC(=O)C4CC4)c(OC)c3)CC21 (some centres unmarked) [I-54] | > 10 | > 10
CNC(=O)[C@H](CCCc1ccccc1)NC(=O)C1CN(C(=O)Cc2c[nH]c3cc(Cl)ccc23)CC2CN(C(=O)c3cnn(C)c3)CC21 (some centres unmarked) [I-55] | > 10 | > 10
CNC(=O)[C@H](CCCc1ccccc1)NC(=O)C1CN(C(=O)Cc2c[nH]c3cc(Cl)ccc23)CC2CN(C(=O)c3cc(C)[nH]n3)CC21 (some centres unmarked) [I-56] | 0.5 to 5 | > 10
CNC(=O)[C@H](CCCc1ccccc1)NC(=O)C1CN(C(=O)Cc2c[nH]c3cc(Cl)ccc23)CC2CN(C(=O)c3ncccn3)CC21 (some centres unmarked) [I-57] | > 10 | > 10
CCc1ccc(C(=O)N2CC3CN(C(=O)Cc4c[nH]c5cc(Cl)ccc45)CC(C(=O)N[C@@H](CCCc4ccccc4)C(=O)NC)C3C2)nc1 (some centres unmarked) [I-58] | > 10 | > 10
CNC(=O)[C@H](CCCc1ccccc1)NC(=O)C1CN(C(=O)Cc2c[nH]c3cc(Cl)ccc23)CC2CN(C(=O)c3ccc(-c4cncnc4)cc3)CC21 (some centres unmarked) [I-59] | > 10 | > 10
CNC(=O)[C@H](CCCc1ccccc1)NC(=O)C1CN(C(=O)Cc2c[nH]c3cc(Cl)ccc23)CC2CN(C(=O)c3cncc(C)n3)CC21 (some centres unmarked) [I-60] | > 10 | > 10
CNC(=O)[C@H](CCCc1ccccc1)NC(=O)C1CN(C(=O)Cc2c[nH]c3cc(Cl)ccc23)CC2CN(C(=O)c3cc4ccccc4[nH]3)CC21 (some centres unmarked) [I-61] | > 10 | > 10
CNC(=O)[C@H](CCCc1ccccc1)NC(=O)C1CN(C(=O)Cc2c[nH]c3cc(Cl)ccc23)CC2CN(C(=O)c3ccc4c(N)n[nH]c4c3)CC21 (some centres unmarked) [I-65] | > 10 | > 10
CNC(=O)[C@H](CCCc1ccccc1)NC(=O)C1CN(C(=O)Cc2c[nH]c3cc(Cl)ccc23)CC2CN(C(=O)c3ccc(NS(C)(=O)=O)c(OC)c3)CC21 (some centres unmarked) [I-66] | > 10 | > 10
CNC(=O)[C@H](CCCc1ccccc1)NC(=O)C1CN(C(=O)Cc2c[nH]c3cc(Cl)ccc23)CC2CN(C(=O)c3ccc(NC(=O)CC4CC4)c(OC)c3)CC21 (some centres unmarked) [I-69] | > 10 | > 10
CNC(=O)[C@H](CCCc1ccccc1)NC(=O)C1CN(C(=O)Cc2c[nH]c3cc(Cl)ccc23)CC2CN(C(=O)c3cnc(-c4ccccc4)s3)CC21 (some centres unmarked) [I-70] | > 10 | > 10
CNC(=O)[C@H](CCCc1ccccc1)NC(=O)C1CN(C(=O)Cc2c[nH]c3cc(Cl)ccc23)CC2CN(C(=O)c3cc(-c4ccccc4)n(C)n3)CC21 (some centres unmarked) [I-71] | > 10 | > 10
CNC(=O)[C@H](CCCc1ccccc1)NC(=O)C1CN(C(=O)Cc2c[nH]c3cc(Cl)ccc23)CC2CN(C(=O)c3ccc4[nH]c(=O)oc4c3)CC21 (some centres unmarked) [I-72] | > 10 | > 10

Structure (SMILES) | IC50 [1] [µM] | IC50 [2] [µM]
CNC(=O)[C@H](CCCc1ccccc1)NC(=O)C1CN(C(=O)Cc2c[nH]c3cc(Cl)ccc23)CC2CN(C(=O)c3ccc4c(c3)oc(=O)n4C)CC21 (some centres unmarked) [I-73] | > 10 | > 10
CNC(=O)[C@H](CCCc1ccccc1)NC(=O)C1CN(C(=O)Cc2c[nH]c3cc(Cl)ccc23)CC2CN(C(=O)c3c[nH]c(-c4ccccc4)n3)CC21 (some centres unmarked) [I-74] | > 10 | > 10
CNC(=O)[C@H](CCCc1ccccc1)NC(=O)C1CN(C(=O)Cc2c[nH]c3cc(Cl)ccc23)CC2CN(C(=O)c3ccc4oc(=O)[nH]c4c3)CC21 (some centres unmarked) [I-75] | > 10 | > 10
CNC(=O)[C@H](CCCc1ccccc1)NC(=O)C1CN(C(=O)Cc2c[nH]c3cc(Cl)ccc23)CC2CN(C(=O)c3ccc(C)cn3)CC21 (some centres unmarked) [I-78] | > 10 | > 10
CNC(=O)[C@H](CCCc1ccccc1)NC(=O)C1CN(C(=O)Cc2c[nH]c3cc(Cl)ccc23)CC2CN(C(=O)c3ccc(-c4cccnc4)cc3)CC21 (some centres unmarked) [I-79] | 5 to 10 | > 10
CNC(=O)[C@H](CCCc1ccccc1)NC(=O)C1CN(C(=O)Cc2c[nH]c3cc(Cl)ccc23)CC2CN(C(=O)c3ccc4cccnc4c3)CC21 (some centres unmarked) [I-80] | > 10 | > 10
CNC(=O)[C@H](CCCc1ccccc1)NC(=O)C1CN(C(=O)Cc2c[nH]c3cc(Cl)ccc23)CC2CN(C(=O)c3ccc(OC(F)(F)F)c(OC)c3)CC21 (some centres unmarked) [I-82] | 0.5 to 5 | 5 to 10
CNC(=O)[C@H](CCCc1ccccc1)NC(=O)C1CN(C(=O)Cc2c[nH]c3cc(Cl)ccc23)CC2CN(C(=O)c3cc4c(c(OC)c3)OC(C)(C)C4)CC21 (some centres unmarked) [I-83] | ≤ 0.5 | > 10
CNC(=O)[C@H](CCCc1ccccc1)NC(=O)C1CN(C(=O)Cc2c[nH]c3cc(Cl)ccc23)CC2CN(C(=O)c3ccc4c(c3)c(OC)nn4C(C)C)CC21 (some centres unmarked) [I-84] | 0.5 to 5 | > 10
CNC(=O)[C@H](CCCc1ccccc1)NC(=O)C1CN(C(=O)Cc2c[nH]c3cc(Cl)ccc23)CC2CN(C(=O)c3ccc(OC(C)C)c4occc34)CC21 (some centres unmarked) [I-85] | ≤ 0.5 | > 10
COc1cc(C(=O)N2CC3CN(C(=O)Cc4c[nH]c5cc(Cl)ccc45)CC(C(=O)N[C@@H]4CCCN(Cc5ccccc5)C4)C3C2)ccc1OC(C)C (stereo partly drawn) [I-88, N—((R)-1-benzylpiperidin-3-yl)-5-(2-(6-chloro-1H-indol-3-yl)acetyl)-2-(4-isopropoxy-3-methoxybenzoyl)octahydro-1H-pyrrolo[3,4-c]pyridine-7-carboxamide] | > 10 | > 10
COc1cc(C(=O)N2CC3CN(C(=O)Cc4c[nH]c5cc(Cl)ccc45)CC(C(=O)NC4CCCN(C(=O)c5ccccc5)C4)C3C2)ccc1OC(C)C (centres unmarked) [I-89] | > 10 | > 10
COc1cc(C(=O)N2CC3CN(C(=O)Cc4c[nH]c5cc(Cl)ccc45)CC(C(=O)NC4CCCN(C(=O)Cc5ccccc5)C4)C3C2)ccc1OC(C)C (centres unmarked) [I-90] | > 10 | > 10
CNC(=O)[C@H](CCCc1ccccn1)NC(=O)C1CN(C(=O)Cc2c[nH]c3cc(Cl)ccc23)CC2CN(C(=O)c3ccc(OC(C)C)c(OC)c3)CC21 (some centres unmarked) [I-91] | 0.5 to 5 | > 10
CNC(=O)[C@H](NC(=O)C1CN(C(=O)Cc2c[nH]c3cc(Cl)ccc23)CC2CN(C(=O)c3ccc(OC(C)C)c(OC)c3)CC21)[C@@H](C)OCc1ccccc1 (some centres unmarked) [I-92] | > 10 | > 10
CNC(=O)C(CCCC1CCCC1)NC(=O)C1CN(C(=O)Cc2c[nH]c3cc(Cl)ccc23)CC2CN(C(=O)c3ccc(OC(C)C)c(OC)c3)CC21 (centres unmarked) [I-93] | 0.5 to 5 | > 10
CNC(=O)[C@H](CCCC1CCC(C(F)(F)F)CC1)NC(=O)C1CN(C(=O)Cc2c[nH]c3cc(Cl)ccc23)CC2CN(C(=O)c3ccc(OC(C)C)c(OC)c3)CC21 (some centres unmarked) [I-94] | > 10 | > 10
